The values that follow come from US8802664B2 (Bioproject, priority 2010, dated 2014).

Structures can show the parent of a compound that is named as a salt.

On to `CN1CCC(NC(c2cccc(SCc3ccccc3)c2)c2nc3ccccc3s2)CC1` (stereo not shown) (as salt: oxalate) [Example 107, [benzothiazol-2-yl(3-benzylsulfanylphenyl)methyl](1-methylpiperidin-4-yl)amine], for which the melting point (as a rule, the temperature of the solid-liquid transition) is 50 °C.
As to `CCN1CCC(OC(c2cccc(OCCN)c2)c2nc3ccccc3s2)CC1` (stereo not shown) (as salt: oxalate) [Example 290, 2-{3-[benzothiazol-2-yl(1-ethyl-piperidin-4-yloxy)methyl]phenoxy}ethylamine], the melting point is 112 °C.
In the case of `CN1CCC(OC(c2nc3ccccc3[nH]2)c2cc(I)ccc2F)CC1` (stereo not shown) (as salt: oxalate) [Example 425, 2-[(2-fluoro-5-iodo-phenyl)(1-methylpiperidin-4-yloxy)methyl]-1H-benzimidazole] it was 175 °C.
In the case of `CN1CCC(OC(c2cccc(C#CCCCn3cccn3)c2)c2nc3ccccc3[nH]2)CC1` (stereo not shown) (as salt: oxalate) [Example 410, 2-{(1-methylpiperidin-4-yloxy)[3-(5-pyrazol-1-yl-pent-1-ynyl)phenyl]methyl}-1H-benzimidazole] it was 115 °C; in that of `Cc1ccc2sc(C(OC3CCN(C)CC3)c3ccccc3)nc2c1` (stereo not shown) (as salt: oxalate) [Example 29, 5-methyl-2-[(1-methylpiperidin-4-yloxy)phenylmethyl]benzothiazole], 175 °C.
In the case of `CN1CCC(OC(c2cccc(OCCCn3nccn3)c2)c2nc3ccccc3s2)CC1` (stereo not shown) (as salt: oxalate) [Example 349, 2-{(1-methylpiperidin-4-yloxy)[3-(3-[1,2,3]triazol-2-yl-propoxy)phenyl]methyl}benzothiazole] it was 74 °C.
Take `CN1CCC(OC(c2nc3ccccc3s2)c2ccccc2Cl)CC1` (stereo not shown) (as salt: oxalate) [Example 281, 2-[(2-Chlorophenyl)(1-methylpiperidin-4-yloxy)methyl]benzothiazole]: the melting point was determined as 163 °C.
In the case of `CN1CCC(OC(c2cccc(CCCCCNC(=N)N)c2)c2nc3ccccc3s2)CC1` (stereo not shown) (as salt: hydrochloride) [Example 365, N-(5-{3-[benzothiazol-2-yl(1-methylpiperidin-4-yloxy)methyl]phenyl}pentyl)guanidine] it was 90 °C; in that of `COCCn1c(C(OC2CCN(C)CC2)c2cccc(C#CCCCCN)c2)nc2ccccc21` (stereo not shown) (as salt: oxalate) [Example 501], 109 °C; in that of `CN1CCC(COC(c2cccc(Br)c2)c2nc3ccccc3s2)C1` (single isomer, unassigned) (as salt: oxalate) [Example 464], 68 °C.
Under `CN1CCC(OC(c2cccc(OCCCCCN3CCN(C(=O)OC(C)(C)C)CC3)c2)c2nc3ccccc3[nH]2)CC1` (stereo not shown) (as salt: oxalate) [Example 391, 4-(5-{3-[(1H-benzimidazol-2-yl)(1-methylpiperidin-4-yloxy)methyl]phenoxy}pentyl)piperazine-1-carboxylic acid tert-butyl ester] stands 101 °C; under `CN1CCC(OC(c2cccc(SC(C)(C)CCO)c2)c2nc3ccccc3s2)CC1` (stereo not shown) (as salt: oxalate) [Example 242, 3-{3-[benzothiazol-2-yl(1-methylpiperidin-4-yloxy)methyl]phenylsulfanyl}-3-methyl-butan-1-ol], 80 °C.
Turning to `CC(=O)NC1CCN(c2cccc(C(OC3CCN(C)CC3)c3nc4ccccc4s3)c2)C1` (stereo not shown) (as salt: oxalate) [Example 408, N-(1-{3-[benzothiazol-2-yl(1-methylpiperidin-4-yloxy)methyl]phenyl}pyrrolidin-3-yl)acetamide], the melting point was found to be 111 °C.
In the case of `CN1CCC(OC(c2cccc(OCCN3CCCCC3)c2)c2nc3ccccc3[nH]2)CC1` (stereo not shown) (as salt: oxalate) [Example 356, 2-{(1-methylpiperidin-4-yloxy)[3-(2-piperidin-1-yl-ethoxy)phenyl]methyl}-1H-benzimidazole] it was 160 °C; in that of `COc1cccc(C(NC2CCN(C)CC2)c2nc3ccccc3s2)c1` (stereo not shown) (as salt: oxalate) [Example 25, [benzothiazol-2-yl(3-methoxyphenyl)methyl](1-methylpiperidin-4-yl)amine], 160 °C; in that of `CCOc1cccc(C(OC2CCN(C)CC2)c2nc3ccccc3s2)c1` (stereo not shown) (as salt: oxalate) [Example 47, 2-[(3-ethoxyphenyl)(1-methylpiperidin-4-yloxy)methyl]benzothiazole], 84 °C.
In the case of `CN1CCC(OC(c2cccc(CCCCN)c2)c2nc3ccccc3s2)CC1` (stereo not shown) (as salt: oxalate) [Example 366, 4-{3-[benzothiazol-2-yl(1-methylpiperidin-4-yloxy)methyl]phenyl}butylamine] it was 100 °C; in that of `CN1CCC(OC(c2cccc(OCCCC(F)(F)F)c2)c2nc3ccccc3s2)CC1` (stereo not shown) (as salt: oxalate) [Example 169, 2-{(1-methylpiperidin-4-yloxy)[3-(4,4,4-trifluoro-butoxy)phenyl]methyl}benzothiazole], 115 °C; in that of `CCOCCn1c(C(OC2CCN(C)CC2)c2cccc(I)c2)nc2ccccc21` (stereo not shown) (as salt: oxalate) [Example 497, 1-(2-ethoxyethyl)-2-[(3-iodophenyl)(1-methylpiperidin-4-yloxy)methyl]-1H-benzimidazole], 88 °C.
In the case of `CN1CCC(OC(c2cccc(N3CCC(O)CC3)c2)c2nc3ccccc3s2)CC1` (stereo not shown) (as salt: oxalate) [Example 411, 1-{3-[benzothiazol-2-yl(1-methylpiperidin-4-yloxy)methyl]phenyl}piperidin-4-ol] it was 110 °C; in that of `C=CCOc1cccc(C(NC2CCN(C)CC2)c2nc3ccccc3[nH]2)c1` (stereo not shown) (as salt: oxalate) [Example 112, [(3-allyloxyphenyl)(1H-benzimidazol-2-yl)methyl](1-methylpiperidin-4-yl)amine], 125 °C.
For `CN1CCC(OC(c2cccc(OCc3ccccc3)c2)c2nc3ccccc3s2)CC1` (stereo not shown) (as salt: oxalate) [Example 45, 2-[(3-benzyloxyphenyl)(1-methylpiperidin-4-yloxy)methyl]benzothiazole], the melting point turned out to be 52 °C.
With `Cc1cccc(C(NC2CCN(C)CC2)c2nc3ccccc3s2)c1` (stereo not shown) (as salt: oxalate) [Example 21, [(benzothiazol-2-yl)(m-tolyl)methyl](1-methylpiperidin-4-yl)amine], the melting point came out at 127 °C.
In the case of `CN1CCC(OC(c2cccc(OCCCF)c2)c2nc3ccccc3s2)CC1` (stereo not shown) (as salt: oxalate) [Example 176, 2-[[3-(3-fluoropropoxy)phenyl](1-methylpiperidin-4-yloxy)methyl]benzothiazole] it was 72 °C.
Under `CN1CCC(OC(c2cccc(OC3CCNC3)c2)c2nc3ccccc3s2)CC1` (stereo not shown) (as salt: oxalate) [Example 382, 2-{(1-methylpiperidin-4-yloxy)[3-(pyrrolidin-3-yloxy)phenyl]methyl}benzothiazole] stands 50 °C; under `CN1CCC(OC(c2cccc(OCCN3CCN(C(=O)OC(C)(C)C)CC3)c2)c2nc3ccccc3[nH]2)CC1` (stereo not shown) (as salt: oxalate) [Example 369, 4-(2-{3-[(1H-benzimidazol-2-yl)(1-methylpiperidin-4-yloxy)methyl]phenoxy}ethyl)piperazine-1-carboxylic acid tert-butyl ester], 92 °C.
Under `CN1CCC(OC(c2cccc(N3CCC(CO)C3)c2)c2nc3ccccc3s2)CC1` (stereo not shown) (as salt: oxalate) [Example 404, (1-{3-[benzothiazol-2-yl(1-methylpiperidin-4-yloxy)methyl]phenyl}pyrrolidin-3-yl)methanol] stands 106 °C; under `CN1CCC(OC(c2cccc(-c3cccc(F)c3)c2)c2nc3ccccc3[nH]2)CC1` (stereo not shown) (as salt: oxalate) [Example 109, 2-[(3′-fluoro-biphenyl-3-yl)(1-methylpiperidin-4-yloxy)methyl]-1H-benzimidazole], 120 °C.
`CN1CCC(OC(c2cccc(-n3cccn3)c2)c2nc3ccccc3s2)CC1` (stereo not shown) (as salt: oxalate) [Example 147, 2-[(1-methylpiperidin-4-yloxy)(3-pyrazol-1-ylphenyl)methyl]benzothiazole] registered a melting point of 89 °C.
In turn, `CN1CCC(OC(c2ccc(Cl)cc2)c2nc3ccccc3[nH]2)CC1` (stereo not shown) (as salt: oxalate) [Example 226, 2-[(4-chlorophenyl)(1-methylpiperidin-4-yloxy)methyl]-1H-benzimidazole] came in with a melting point of 175 °C.
Under `CN1CCC(OC(c2cccc(OCCCCN)c2)c2nc3ccccc3[nH]2)CC1` (stereo not shown) (as salt: oxalate) [Example 331, 4-{3-[(1H-benzimidazol-2-yl)(1-methylpiperidin-4-yloxy)methyl]phenoxy}butylamine] stands 115 °C; under `CN1CCC(OC(c2cccc(CCc3cn(C)cn3)c2)c2nc3ccccc3s2)CC1` (stereo not shown) (as salt: oxalate) [Example 306, 2-[{3-[2-(1-methyl-1H-imidazol-4-yl)ethyl]phenyl}(1-methylpiperidin-4-yloxy)methyl]benzothiazole], 80 °C; under `CN1CCC(OC(c2cccc(N3CCC(F)C3)c2)c2nc3ccccc3s2)CC1` (stereo not shown) (as salt: oxalate) [Example 454], 103 °C.
Under `CN1CCC(OC(c2cccc(N3CC4CN(C)CC4C3)c2)c2nc3ccccc3s2)CC1` (stereo not shown) (as salt: oxalate) [Example 485] stands 131 °C; under `CN1CCC(OC(c2cccc(SCCCCCN)c2)c2nc3ccccc3[nH]2)CC1` (stereo not shown) (as salt: oxalate) [Example 381, 5-{3-[(1H-benzimidazol-2-yl)(1-methylpiperidin-4-yloxy)methyl]phenylsulfanyl}pentylamine], 140 °C; under `CCOCCn1c(C(OC2CCN(C)CC2)c2cccc(C#CCCCCN)c2)nc2ccccc21` (stereo not shown) (as salt: oxalate) [Example 500], 103 °C.
In the case of `CN1CCC(NC(c2cc3ccccc3o2)c2nc3ccccc3s2)CC1` (stereo not shown) (as salt: oxalate) [Example 37, [(benzofuran-2-yl)(benzothiazol-2-yl)methyl](1-methylpiperidin-4-yl)amine] it was 125 °C.
